We go through 3 compounds from publication PMC11245370, “3-Position Biaryl Endochin-like Quinolones with Enhanced Antimalarial Performance” (ACS Infectious Diseases, 2024).

Data set [1] has as its system P. yoelii blood-stage infection. The experiment in a line: Single-dose cure of blood-stage murine malaria. Type of data set: in vivo, Plasmodium yoelii. The conditions noted are these: lowest single oral dose curing all four mice, day 30. The protocol:
(§1) On day 5, a drop of blood was taken from the tail, and a blood smear was prepared, fixed with methanol, and stained with Giemsa. The operator then examined the stained smear microscopically to determine percent parasitemia. […] In this model, animals were inoculated exactly as for the 4 day test on day 0; however, drug was administered only on day 1, whereas smears were made on day 5 and again weekly thereafter for animals that remained aparasitemic. Animals that remained aparasitemic on day 30 were scored as cures.
The effectiveness of selected 3-biaryl ELQs and prodrugs was assessed vs the blood-stage infection for single-dose cures. Mice were infected iv with 3.5 × 10^4P. yoelii infected RBCs as described for the 4 day test above. Drug administration occurred on the day after inoculation (day 1). Test agents were dissolved in PEG-400 and administered ig once. On the fifth day, blood films were prepared, and % parasitemia was assessed. Animals remaining parasite-free for 30 days after drug administration were considered cured. The initial dosing range was 0.25, 0.5, 1, 3, and 10 mg/kg, including a control. Experiments were performed with four mice per group to ensure statistical accuracy. The reported parameter for these studies is the lowest single dose that provides a cure to all four animals in the group.

In data set [2] the test system is P. falciparum drug-sensitive D6 strain. Put plainly: SYBR Green I antiplasmodial assay, D6 strain. The class given is cell-based. The conditions noted are these: Plasmodium falciparum, read-out: P. falciparum IC50 values, D6.
Data set [3] has as its system P. falciparum multidrug-resistant Dd2 strain. Put plainly: microbe, parasite or virus in culture. Type of data set: cell-based. The conditions noted are these: Plasmodium falciparum, DD2, 72 h, read-out: P. falciparum IC50 values, Dd2.
Data set [4] relates to P. falciparum atovaquone-resistant clinical isolate Tm90-C2B. Put plainly: SYBR Green I antiplasmodial assay, Tm90-C2B. The conditions noted are these: Plasmodium falciparum, read-out: P. falciparum IC50 values, Tm90-C2B. Type of data set: cell-based.
In data set [5] the test system is P. yoelii blood-stage infection. The conditions noted are these: mice; for blood stage in vivo efficacy, 4 day Peters test results, NRD (nonrecrudescence dose): oral gavage days 1-4, followed to day 30. The procedure: as §1
The P. yoelii 4 day test monitors suppression of patent infection in female CF1 mice. The test began with the inoculation (iv) of parasitized erythrocytes (3.5 × 10^4P. yoelli) (from a donor animal) on the first day of the experiment (D0). […] Initially, the 3-biaryl-ELQs were tested at doses of 0.0025, 0.005, 0.01, 0.03, 0.1, 0.3, 1.0, and 10 mg/kg/day, including a vehicle-only (PEG400) control. After completion of drug treatment, a blood sample was collected (by pricking the tail vein) for determination of parasite burden beginning on the day after the final dose (D5). Percent parasitemia was assessed by direct microscopic analysis of Giemsa-stained blood smears. […] Animals with observable parasitemia following the experiment were euthanized; animals cleared of parasites from the bloodstream were observed daily with assessment of parasitemia performed weekly until day 30, at which point the animals were scored as cured of infection. […] Nonlinear regression analysis was used for objective determination of ED50’s and ED90’s from the accumulated data as well as the nonrecrudescence dose (NRD). The 4 day test protocol was reviewed and approved by the local IACUC board at the Portland VA Medical Center. Experiments were performed with four mice per group to ensure statistical accuracy.

Data set [6] addresses human liver cytochrome bc1 complex (Homo sapiens, UniProt P00156). Also on record: method as in Nilsen et al., 2013. The conditions noted are these: ref Nilsen et al., 2013; cited from earlier work.
Data set [7] concerns P. falciparum ELQ-300-resistant D1 clone. The experiment in a line: microbe, parasite or virus in culture. Type of data set: cell-based. The conditions noted are these: Plasmodium falciparum, 72 h, read-out: P. falciparum IC50 values, D1.
Data set [8] in a line: HepG2 cytotoxicity / mitochondrial toxicity (TiterGlo ATP, galactose medium). The conditions noted are these: human, HepG2 cells.
Description: HepG2 was routinely cultured in DMEM containing 10% fetal calf serum and 100 IU/mL penicillin and 100 μg/mL streptomycin (complete medium). For studies to investigate the potential for mitochondrial toxicity by selected 3-biaryl-ELQs, the medium contained galactose rather than glucose to force the cells to produce ATP through oxidative phosphorylation, which in turn makes them sensitive to mitochondrial toxicants.[36] […] After this period, the culture medium was removed, and the cells were shifted to galactose-containing medium with test drugs at concentrations ranging from 0 to 10 μM. Drug dilutions were prepared from DMSO stocks into galactose-containing medium. […] After incubation, the contents of each well were removed, and 25 μL of TiterGlo II reagent mix containing luciferase, detergent, and luciferin was added to each well along with 25 μL of culture medium. […] At this point, the plates were read on a luminometer (SpectraMax iD3 iD5Multi-Mode Microplate Reader), and the data were processed to yield the percent decrease in ATP production relative to no-drug control values. These values reflect the potential damage caused by mitochondrial toxicants due to reduced intracellular ATP levels caused by interference with the human mitochondrial electron transport chain. Assays were set up in triplicate.
The conditions of data set [9]: ELQ-300, active metabolite of ELQ-331; comparison value, no reference given; cited from earlier work.
The test system of data set [10] is P. falciparum multidrug-resistant Dd2 strain. The conditions noted are these: earlier work of the authors, no reference given; cited from earlier work.
Data set [11] relates to P. falciparum drug-sensitive D6 strain. The conditions noted are these: earlier work of the authors, no reference given; cited from earlier work.
For data set [12] the following is noted: earlier work of the authors, no reference given; cited from earlier work.
Data set [13] deals with P. falciparum atovaquone-resistant clinical isolate Tm90-C2B. The conditions noted are these: earlier work of the authors, no reference given; cited from earlier work.
Where [14] appears, read: oral gavage days 1-4, parasitemia day 5, prodrugs dosed on molar equivalency to parent.

Where two headings read alike, the source gives them in different places. Where only a bound is given, the exact number is not on record here.

Usually IC50 stands for the concentration at which inhibition is half-maximal. Broadly, the EC50 is the concentration needed to bring the measured effect to its halfway point. In the case of `O=C1C(O)=C([C@H]2CC[C@H](c3ccc(Cl)cc3)CC2)C(=O)c2ccccc21` [Atovaquone, reference compound], the “blood stage in vivo efficacy, single dose cure” value in data set [1] worked out at 10 mg/kg/day. In addition, the IC50 in [2] (D6, 72 h, SYBR Green, mean (95% confidence interval of fit)) was 0.08 nM; in [3], 0.4 nM; in data set [4] (TM90, 72 h, SYBR Green, mean (95% confidence interval of fit)), above 1000 nM; in data set [7], 0.4 nM. Further, the “blood stage in vivo efficacy, 4 day Peters test results, NRD (nonrecrudescence dose)” value in data set [5] came to 10 mg/kg/day. Further, in data set [5] (setting [14]), the “blood stage in vivo efficacy, 4 day Peters test results, ED50” value is 0.1 mg/kg/day. In addition, in data set [6], the EC50 was 460 nM.
In the case of `COc1cc2[nH]c(C)c(-c3ccc(Oc4ccc(OC(F)(F)F)cc4)cc3)c(=O)c2cc1Cl` [ELQ-300], the “blood stage in vivo efficacy, single dose cure” value in [1] is above 25 mg/kg/day. Moreover, the IC50 in data set [2] (D6, 72 h) was found to be 3.3 nM; in [3], 4.2 nM; in data set [4] (TM90, 72 h), 2.5 nM. For the same compound, the IC50 at 24 h in [8] is above 10000 nM. In addition, the “blood stage in vivo efficacy, 4 day Peters test results, NRD (nonrecrudescence dose)” value in data set [5] came out at 1.0 mg/kg/day. The “blood stage in vivo efficacy, 4 day Peters test results, ED50” value in [5] (setting [14]) is listed as 0.02 mg/kg/day. Also, the “blood stage in vivo efficacy, 4 day Peters test results, ED90” value in data set [5] (setting [14]) is recorded as 0.06 mg/kg/day. Further, the EC50 in [6] is above 10000 nM. The “elimination T1/2” value in data set [9] is 14.6 h.
In the case of `COc1cc2[nH]c(C)c(-c3ccc(Oc4cccc(OC(F)(F)F)c4)cc3)c(=O)c2cc1Cl` [ELQ-307], the IC50 in [10], in data set [11] and in data set [13] was at most 0.03 nM each time. Also, the metabolic stability result in data set [12] is given as “metabolically unstable”.
